The source made the active and inactive calls. No cut-off for these calls is given here.
Legend:
[1] = molecular target: Insulin receptor (Homo sapiens) (UniProt P06213); experiment: Inhibition of wild-type human Insulin receptor activation transfected in insulin-stimulated CHO-K1 cells; type: cell-based
[2] = molecular target: Tyrosine-protein kinase JAK2 (Homo sapiens) (UniProt O60674); experiment: Inhibition of human JAK2 at 500 nM by HotSpot assay relative to control
[3] = molecular target: Macrophage-stimulating protein receptor (Homo sapiens) (UniProt Q04912); experiment: Inhibition of human MST1R at 500 nM by HotSpot assay relative to control
[4] = molecular target: Serine/threonine-protein kinase MARK1 (Homo sapiens) (UniProt Q9P0L2); experiment: Inhibition of human MARK1 at 500 nM by HotSpot assay relative to control
[5] = molecular target: T1, Serine/threonine-protein kinase 17A (Homo sapiens) (UniProt Q9UEE5); experiment: Inhibition of human DRAK1 at 500 nM by HotSpot assay relative to control
T1 sequence (whole entry): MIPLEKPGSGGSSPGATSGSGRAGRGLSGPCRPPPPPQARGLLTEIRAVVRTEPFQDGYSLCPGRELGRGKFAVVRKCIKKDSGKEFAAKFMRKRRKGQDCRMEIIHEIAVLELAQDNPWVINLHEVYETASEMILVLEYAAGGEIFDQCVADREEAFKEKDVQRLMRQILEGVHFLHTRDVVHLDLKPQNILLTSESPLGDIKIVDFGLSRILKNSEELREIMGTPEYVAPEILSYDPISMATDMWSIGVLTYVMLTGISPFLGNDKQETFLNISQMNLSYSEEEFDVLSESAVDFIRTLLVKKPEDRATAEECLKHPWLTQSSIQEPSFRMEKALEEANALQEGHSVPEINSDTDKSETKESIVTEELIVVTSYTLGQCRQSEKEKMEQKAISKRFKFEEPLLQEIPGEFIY

[6] = molecular target: Non-receptor tyrosine-protein kinase TYK2 (Homo sapiens) (UniProt P29597); experiment: Inhibition of human TYK2 at 500 nM by HotSpot assay relative to control
[7] = molecular target: T2, Serine/threonine-protein kinase ULK1 (Homo sapiens) (UniProt O75385); experiment: Inhibition of human ULK1 at 500 nM by HotSpot assay relative to control
T2 sequence (whole entry): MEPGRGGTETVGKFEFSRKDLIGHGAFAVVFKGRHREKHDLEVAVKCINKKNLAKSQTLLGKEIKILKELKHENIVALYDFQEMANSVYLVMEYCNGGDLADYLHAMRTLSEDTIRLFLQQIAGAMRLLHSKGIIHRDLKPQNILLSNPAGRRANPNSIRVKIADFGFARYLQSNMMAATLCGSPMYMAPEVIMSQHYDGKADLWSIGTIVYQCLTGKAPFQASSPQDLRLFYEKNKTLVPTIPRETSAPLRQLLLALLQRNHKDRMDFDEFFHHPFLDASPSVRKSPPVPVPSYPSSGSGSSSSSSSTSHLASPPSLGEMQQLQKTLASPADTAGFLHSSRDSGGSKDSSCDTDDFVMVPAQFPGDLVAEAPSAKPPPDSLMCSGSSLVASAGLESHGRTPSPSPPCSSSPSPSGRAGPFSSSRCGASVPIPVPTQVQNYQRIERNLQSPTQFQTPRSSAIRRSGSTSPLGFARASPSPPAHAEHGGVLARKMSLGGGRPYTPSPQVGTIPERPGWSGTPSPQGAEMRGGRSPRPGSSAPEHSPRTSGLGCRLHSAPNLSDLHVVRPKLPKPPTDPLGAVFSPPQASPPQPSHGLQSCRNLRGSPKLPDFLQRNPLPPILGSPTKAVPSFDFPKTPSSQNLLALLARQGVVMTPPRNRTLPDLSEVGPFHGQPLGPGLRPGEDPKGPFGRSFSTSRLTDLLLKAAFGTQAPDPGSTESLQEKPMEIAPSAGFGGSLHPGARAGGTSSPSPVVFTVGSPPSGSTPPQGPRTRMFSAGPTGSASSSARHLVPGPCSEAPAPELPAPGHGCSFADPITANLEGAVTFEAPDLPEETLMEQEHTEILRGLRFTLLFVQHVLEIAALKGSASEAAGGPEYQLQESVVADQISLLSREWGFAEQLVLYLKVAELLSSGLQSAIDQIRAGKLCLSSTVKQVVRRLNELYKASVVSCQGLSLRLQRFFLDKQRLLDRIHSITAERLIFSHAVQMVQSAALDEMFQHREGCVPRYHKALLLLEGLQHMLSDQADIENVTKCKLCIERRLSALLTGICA

[8] = molecular target: Proto-oncogene tyrosine-protein kinase Src (Homo sapiens) (UniProt P12931); experiment: Inhibition of human c-Src at 500 nM by HotSpot assay relative to control
[9] = molecular target: STE20-like serine/threonine-protein kinase (Homo sapiens) (UniProt Q9H2G2); experiment: Inhibition of human STK2 at 500 nM by HotSpot assay relative to control
[10] = molecular target: T3, Lymphokine-activated killer T-cell-originated protein kinase (Homo sapiens) (UniProt Q96KB5); experiment: Inhibition of human TOPK at 500 nM by HotSpot assay relative to control
T3 sequence (whole entry): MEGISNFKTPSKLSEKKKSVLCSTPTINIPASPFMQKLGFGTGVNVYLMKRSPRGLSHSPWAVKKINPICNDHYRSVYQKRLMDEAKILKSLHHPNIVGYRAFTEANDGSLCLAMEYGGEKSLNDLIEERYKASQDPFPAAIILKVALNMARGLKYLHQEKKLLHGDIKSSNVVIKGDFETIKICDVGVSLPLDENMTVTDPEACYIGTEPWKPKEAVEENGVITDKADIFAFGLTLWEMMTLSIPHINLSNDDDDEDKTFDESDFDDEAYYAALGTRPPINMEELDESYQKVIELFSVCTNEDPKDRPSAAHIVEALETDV

[11] = molecular target: Serine/threonine-protein kinase Chk2 (Homo sapiens) (UniProt O96017); experiment: Inhibition of human CHK2 at 500 nM by HotSpot assay relative to control
[12] = molecular target: SRSF protein kinase 3 (Homo sapiens) (UniProt Q9UPE1); experiment: Inhibition of human STK23 at 500 nM by HotSpot assay relative to control
[13] = molecular target: G protein-coupled receptor kinase 4 (Homo sapiens) (UniProt P32298); experiment: Inhibition of human GRK4 at 500 nM by HotSpot assay relative to control

Chain of Serine/threonine-protein kinase MARK1 (Homo sapiens) (Q9P0L2 whole entry, looked up): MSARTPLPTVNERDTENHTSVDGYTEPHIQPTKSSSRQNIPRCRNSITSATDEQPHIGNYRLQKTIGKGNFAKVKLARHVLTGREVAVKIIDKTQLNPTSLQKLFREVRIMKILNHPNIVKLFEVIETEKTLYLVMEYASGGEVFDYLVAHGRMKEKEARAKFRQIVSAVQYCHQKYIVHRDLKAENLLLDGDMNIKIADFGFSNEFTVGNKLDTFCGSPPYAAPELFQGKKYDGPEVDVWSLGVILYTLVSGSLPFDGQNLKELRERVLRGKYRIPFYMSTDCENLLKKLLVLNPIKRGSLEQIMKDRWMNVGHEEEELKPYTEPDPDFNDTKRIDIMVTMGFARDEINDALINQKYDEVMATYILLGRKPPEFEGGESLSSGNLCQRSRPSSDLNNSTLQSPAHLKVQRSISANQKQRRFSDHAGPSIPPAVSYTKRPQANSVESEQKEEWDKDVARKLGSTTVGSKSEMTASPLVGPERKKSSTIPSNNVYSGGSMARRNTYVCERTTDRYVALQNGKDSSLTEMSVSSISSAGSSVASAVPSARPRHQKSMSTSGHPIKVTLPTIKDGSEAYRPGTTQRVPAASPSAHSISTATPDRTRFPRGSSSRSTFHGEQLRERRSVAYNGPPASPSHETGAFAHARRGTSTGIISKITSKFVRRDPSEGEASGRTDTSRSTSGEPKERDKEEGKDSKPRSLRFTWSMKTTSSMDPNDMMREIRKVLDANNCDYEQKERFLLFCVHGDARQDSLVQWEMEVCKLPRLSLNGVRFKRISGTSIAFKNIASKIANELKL
Chain of STE20-like serine/threonine-protein kinase (Homo sapiens) (Q9H2G2 whole entry, looked up): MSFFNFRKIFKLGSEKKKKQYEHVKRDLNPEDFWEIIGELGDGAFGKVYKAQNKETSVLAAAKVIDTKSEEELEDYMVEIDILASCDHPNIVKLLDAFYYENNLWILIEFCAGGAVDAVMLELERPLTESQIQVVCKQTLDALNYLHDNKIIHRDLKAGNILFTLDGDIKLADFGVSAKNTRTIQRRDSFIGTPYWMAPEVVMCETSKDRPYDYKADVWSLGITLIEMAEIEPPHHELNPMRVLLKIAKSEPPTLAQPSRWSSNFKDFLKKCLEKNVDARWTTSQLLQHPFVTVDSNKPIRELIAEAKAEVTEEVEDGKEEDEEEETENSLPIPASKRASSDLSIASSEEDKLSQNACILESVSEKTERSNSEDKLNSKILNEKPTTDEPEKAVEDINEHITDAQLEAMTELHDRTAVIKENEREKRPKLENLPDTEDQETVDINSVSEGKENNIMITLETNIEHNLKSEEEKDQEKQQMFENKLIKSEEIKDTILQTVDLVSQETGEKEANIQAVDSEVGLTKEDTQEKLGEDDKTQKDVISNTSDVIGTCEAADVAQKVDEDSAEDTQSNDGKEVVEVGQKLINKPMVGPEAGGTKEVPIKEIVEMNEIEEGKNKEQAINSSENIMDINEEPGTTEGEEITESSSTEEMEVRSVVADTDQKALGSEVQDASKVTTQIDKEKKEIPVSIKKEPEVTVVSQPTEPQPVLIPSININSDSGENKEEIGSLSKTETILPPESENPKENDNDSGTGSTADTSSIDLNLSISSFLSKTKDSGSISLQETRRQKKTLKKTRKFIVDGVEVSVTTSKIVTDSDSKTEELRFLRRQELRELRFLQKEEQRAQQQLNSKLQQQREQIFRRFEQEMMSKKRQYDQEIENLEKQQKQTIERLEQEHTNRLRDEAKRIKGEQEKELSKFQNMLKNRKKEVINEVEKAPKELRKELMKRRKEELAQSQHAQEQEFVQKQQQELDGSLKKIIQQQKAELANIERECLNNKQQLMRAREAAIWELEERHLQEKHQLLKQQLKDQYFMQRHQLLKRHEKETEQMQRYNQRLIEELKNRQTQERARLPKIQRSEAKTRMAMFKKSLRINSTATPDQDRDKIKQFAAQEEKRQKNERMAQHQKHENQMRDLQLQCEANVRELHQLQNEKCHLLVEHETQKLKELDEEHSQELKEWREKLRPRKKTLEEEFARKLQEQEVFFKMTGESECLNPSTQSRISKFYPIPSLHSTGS
Chain of Tyrosine-protein kinase JAK2 (Homo sapiens) (O60674 whole entry): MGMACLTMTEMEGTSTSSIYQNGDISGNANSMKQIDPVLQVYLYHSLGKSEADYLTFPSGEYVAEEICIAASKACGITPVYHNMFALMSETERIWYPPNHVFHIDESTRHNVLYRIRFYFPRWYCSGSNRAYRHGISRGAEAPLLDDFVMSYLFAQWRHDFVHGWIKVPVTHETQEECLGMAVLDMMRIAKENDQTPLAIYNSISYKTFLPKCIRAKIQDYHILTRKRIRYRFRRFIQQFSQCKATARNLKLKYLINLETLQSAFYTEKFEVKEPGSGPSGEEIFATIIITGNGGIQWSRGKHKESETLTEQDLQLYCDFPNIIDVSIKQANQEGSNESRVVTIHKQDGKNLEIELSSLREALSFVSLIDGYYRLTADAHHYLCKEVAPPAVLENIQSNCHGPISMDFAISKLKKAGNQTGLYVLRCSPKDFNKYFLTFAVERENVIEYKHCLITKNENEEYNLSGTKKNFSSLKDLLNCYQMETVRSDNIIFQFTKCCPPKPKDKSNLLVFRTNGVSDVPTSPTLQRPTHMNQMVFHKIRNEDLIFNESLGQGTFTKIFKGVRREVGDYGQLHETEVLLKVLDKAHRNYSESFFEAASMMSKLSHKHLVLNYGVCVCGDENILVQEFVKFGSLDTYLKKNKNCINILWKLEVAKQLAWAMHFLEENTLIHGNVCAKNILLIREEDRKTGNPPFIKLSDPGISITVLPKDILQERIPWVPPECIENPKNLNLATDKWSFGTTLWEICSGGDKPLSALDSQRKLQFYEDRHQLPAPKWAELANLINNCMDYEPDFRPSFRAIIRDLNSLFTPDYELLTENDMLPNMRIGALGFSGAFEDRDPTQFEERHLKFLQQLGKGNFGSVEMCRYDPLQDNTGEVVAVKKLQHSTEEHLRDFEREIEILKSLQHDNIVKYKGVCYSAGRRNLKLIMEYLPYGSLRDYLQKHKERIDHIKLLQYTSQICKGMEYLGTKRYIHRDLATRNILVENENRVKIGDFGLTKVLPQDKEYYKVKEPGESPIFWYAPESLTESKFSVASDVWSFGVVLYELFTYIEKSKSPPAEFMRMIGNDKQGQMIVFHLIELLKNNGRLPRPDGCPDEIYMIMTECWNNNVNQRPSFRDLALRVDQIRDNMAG
Chain of Insulin receptor (Homo sapiens) (P06213 28-758 limits assumed): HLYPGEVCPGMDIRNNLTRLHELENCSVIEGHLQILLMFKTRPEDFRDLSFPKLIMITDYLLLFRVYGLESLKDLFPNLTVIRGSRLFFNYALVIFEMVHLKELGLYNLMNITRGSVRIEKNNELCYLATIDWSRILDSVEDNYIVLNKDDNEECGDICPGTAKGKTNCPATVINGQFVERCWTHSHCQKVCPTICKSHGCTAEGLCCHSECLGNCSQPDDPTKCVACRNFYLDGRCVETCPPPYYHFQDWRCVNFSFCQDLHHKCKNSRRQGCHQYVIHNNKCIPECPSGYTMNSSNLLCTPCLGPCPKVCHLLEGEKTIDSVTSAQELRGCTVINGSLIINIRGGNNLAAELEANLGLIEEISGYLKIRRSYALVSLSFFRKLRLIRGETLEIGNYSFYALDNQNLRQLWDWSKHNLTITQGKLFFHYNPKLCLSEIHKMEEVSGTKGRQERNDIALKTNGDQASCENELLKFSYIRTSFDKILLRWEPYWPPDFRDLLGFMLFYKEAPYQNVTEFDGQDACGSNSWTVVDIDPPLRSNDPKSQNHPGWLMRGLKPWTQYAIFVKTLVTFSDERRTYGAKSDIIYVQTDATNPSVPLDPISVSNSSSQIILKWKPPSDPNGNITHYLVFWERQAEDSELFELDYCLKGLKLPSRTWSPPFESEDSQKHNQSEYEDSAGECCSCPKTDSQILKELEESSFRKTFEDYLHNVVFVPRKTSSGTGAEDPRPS
Chain of Insulin receptor (Homo sapiens) (P06213 763-1382 limits assumed): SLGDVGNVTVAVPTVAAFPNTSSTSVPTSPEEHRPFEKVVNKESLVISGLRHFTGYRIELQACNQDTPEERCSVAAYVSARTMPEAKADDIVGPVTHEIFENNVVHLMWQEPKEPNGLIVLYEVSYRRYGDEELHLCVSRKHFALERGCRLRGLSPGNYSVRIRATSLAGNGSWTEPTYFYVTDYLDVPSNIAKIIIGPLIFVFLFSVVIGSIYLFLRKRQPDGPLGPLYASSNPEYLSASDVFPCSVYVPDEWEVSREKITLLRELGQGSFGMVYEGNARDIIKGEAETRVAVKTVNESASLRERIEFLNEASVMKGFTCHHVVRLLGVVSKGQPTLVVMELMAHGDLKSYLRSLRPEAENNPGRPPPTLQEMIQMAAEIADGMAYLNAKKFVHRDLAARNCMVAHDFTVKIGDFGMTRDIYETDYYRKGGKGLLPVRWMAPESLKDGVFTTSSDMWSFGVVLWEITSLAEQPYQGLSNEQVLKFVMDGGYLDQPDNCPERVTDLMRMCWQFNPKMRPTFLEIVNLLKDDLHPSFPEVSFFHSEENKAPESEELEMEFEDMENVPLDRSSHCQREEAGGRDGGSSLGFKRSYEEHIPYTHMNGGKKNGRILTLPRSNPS
Chain of Proto-oncogene tyrosine-protein kinase Src (Homo sapiens) (P12931 2-536 limits assumed): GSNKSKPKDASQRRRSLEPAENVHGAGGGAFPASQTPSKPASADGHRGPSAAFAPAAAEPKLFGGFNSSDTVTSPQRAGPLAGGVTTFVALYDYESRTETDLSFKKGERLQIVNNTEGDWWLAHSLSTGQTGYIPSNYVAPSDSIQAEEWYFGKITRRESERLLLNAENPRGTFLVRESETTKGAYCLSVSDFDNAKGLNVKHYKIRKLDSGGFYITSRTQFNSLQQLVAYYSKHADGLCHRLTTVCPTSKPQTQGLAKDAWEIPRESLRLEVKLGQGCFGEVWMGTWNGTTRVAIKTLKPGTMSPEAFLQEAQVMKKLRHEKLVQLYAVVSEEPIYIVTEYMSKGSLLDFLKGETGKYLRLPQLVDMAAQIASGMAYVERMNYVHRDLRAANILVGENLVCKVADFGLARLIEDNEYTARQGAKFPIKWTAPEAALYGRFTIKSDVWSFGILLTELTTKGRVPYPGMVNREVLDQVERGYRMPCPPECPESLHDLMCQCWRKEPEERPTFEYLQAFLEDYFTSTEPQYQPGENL

SMILES | inhibition [1] | inhibition [2] [%] | inhibition [3] [%] | inhibition [4] [%] | inhibition [5] [%] | inhibition [6] [%] | inhibition [7] [%] | inhibition [8] [%] | inhibition [9] [%] | inhibition [10] [%] | inhibition [11] [%] | inhibition [12] [%] | inhibition [13] [%]
Nc1n[nH]c2nnc(-c3c(-c4ccccc4)nn4ccccc34)cc12 | inactive | 2.93 | -1.66 | 2.04 | 0.09 | -3.67 | 2.87 | -0.45 | 6.01 | 4.99 | 2.97 | 11.2 | -2.71
Oc1n[nH]c2nnc(-c3c(-c4ccccc4)nn4ccccc34)cc12 | inactive | 2.36 | -6.32 | 4.47 | -1.05 | -3.67 | 0.87 | -2.58 | 0.54 | -8.9 | 1.86 | 0.76 | -1.17
